What is called LC50 is the concentration that kills 50% of the test population. A low value points to greater toxicity.

Each structure is given as a SMILES string. ≈ marks a conversion by molar mass, not a printed value.

Results on one molecule are retold here after ChEMBL document CHEMBL3046191, “Strong resistance to phosphine in the rusty grain beetle, Cryptolestes ferrugineus (Stephens) (Coleoptera: Laemophloeidae): its characterisation, a rapid assay for diagnosis and its distribution in Australia” (2013).

The subject of assay [1] is Cryptolestes ferrugineus. Nature of the assay: Insecticidal activity against phosphine-weakly resistant Cryptolestes ferrugineus (rusty grain beetle) Lab-WR after 72 hr by FAO method.
For assay [2], the system named is Cryptolestes ferrugineus. Nature of the assay: Insecticidal activity against phosphine-weakly resistant Cryptolestes ferrugineus (rusty grain beetle) Lab-WR after 48 hr by FAO method.
The subject of assay [3] is Cryptolestes ferrugineus. Nature of the assay: Insecticidal activity against Cryptolestes ferrugineus (rusty grain beetle) Lab-S after 72 hr by FAO method.
The test system of assay [4] is Cryptolestes ferrugineus. Nature of the assay: Insecticidal activity against Cryptolestes ferrugineus (rusty grain beetle) Lab-S after 48 hr by FAO method.
Assay [5] relates to Cryptolestes ferrugineus. Briefly: Insecticidal activity against phosphine-resistant Cryptolestes ferrugineus (rusty grain beetle) Lab-StR after 72 hr by FAO method.
Assay [6] has as its system Cryptolestes ferrugineus. Briefly: Insecticidal activity against phosphine-resistant Cryptolestes ferrugineus (rusty grain beetle) Lab-StR after 48 hr by FAO method.
For assay [7], the system named is Cryptolestes ferrugineus. Nature of the assay: whole plant or invertebrate. The note with it: QQCF691, 144 h.
Description: Insecticidal activity against strongly phosphine-resistant Cryptolestes ferrugineus (rusty grain beetle) QQCF691 after 144 hr by FAO method
Assay [8] deals with Cryptolestes ferrugineus. Briefly: whole plant or invertebrate. Particulars: QNCF134, 144 h.
Description: Insecticidal activity against strongly phosphine-resistant Cryptolestes ferrugineus (rusty grain beetle) QNCF134 after 144 hr by FAO method
In assay [9] the test system is Cryptolestes ferrugineus. Briefly: whole plant or invertebrate. Particulars: QNCF130, 144 h.
Description: Insecticidal activity against strongly phosphine-resistant Cryptolestes ferrugineus (rusty grain beetle) QNCF130 after 144 hr by FAO method
The test system of assay [10] is Cryptolestes ferrugineus. Briefly: whole plant or invertebrate. Particulars: QNCF129, 144 h.
Description: Insecticidal activity against strongly phosphine-resistant Cryptolestes ferrugineus (rusty grain beetle) QNCF129 after 144 hr by FAO method
In assay [11] the test system is Cryptolestes ferrugineus. Briefly: whole plant or invertebrate. The note with it: QNCF122, 144 h.
Description: Insecticidal activity against strongly phosphine-resistant Cryptolestes ferrugineus (rusty grain beetle) QNCF122 after 144 hr by FAO method
Assay [12] has as its system Cryptolestes ferrugineus. Nature of the assay: whole plant or invertebrate. The note with it: QNCF110, 144 h.
Description: Insecticidal activity against strongly phosphine-resistant Cryptolestes ferrugineus (rusty grain beetle) QNCF110 after 144 hr by FAO method
Assay [13] relates to Cryptolestes ferrugineus. Nature of the assay: whole plant or invertebrate. The note with it: QNCF104, 144 h.
Description: Insecticidal activity against strongly phosphine-resistant Cryptolestes ferrugineus (rusty grain beetle) QNCF104 after 144 hr by FAO method
Assay [14] relates to Cryptolestes ferrugineus. Briefly: whole plant or invertebrate. The note with it: QNCF102, 144 h.
Description: Insecticidal activity against strongly phosphine-resistant Cryptolestes ferrugineus (rusty grain beetle) QNCF102 after 144 hr by FAO method
In assay [15] the test system is Cryptolestes ferrugineus. Briefly: whole plant or invertebrate. Particulars: QNCF101, 144 h.
Description: Insecticidal activity against strongly phosphine-resistant Cryptolestes ferrugineus (rusty grain beetle) QNCF101 after 144 hr by FAO method
Assay [16] has as its system Cryptolestes ferrugineus. Briefly: whole plant or invertebrate. Particulars: QNCF83, 144 h.
Description: Insecticidal activity against strongly phosphine-resistant Cryptolestes ferrugineus (rusty grain beetle) QNCF83 after 144 hr by FAO method
Assay [17] has as its system Cryptolestes ferrugineus. Briefly: whole plant or invertebrate. Particulars: Lab-WR, 144 h.
Description: Insecticidal activity against phosphine-weakly resistant Cryptolestes ferrugineus (rusty grain beetle) Lab-WR after 144 hr by FAO method
The test system of assay [18] is Cryptolestes ferrugineus. Briefly: whole plant or invertebrate. The note with it: Lab-StR, 144 h.
Description: Insecticidal activity against phosphine-resistant Cryptolestes ferrugineus (rusty grain beetle) Lab-StR after 144 hr by FAO method
In assay [19] the test system is Cryptolestes ferrugineus. Nature of the assay: whole plant or invertebrate. Particulars: Lab-S, 144 h.
Description: Insecticidal activity against Cryptolestes ferrugineus (rusty grain beetle) Lab-S after 144 hr by FAO method

As for `P` [PHOSPHINE], the LC50 in [1] was found to be 0.037 µg/mL (≈ 1.09 µM); in assay [2] it was 0.056 µg/mL (≈ 1.65 µM); in [3] it was 0.004 µg/mL (≈ 0.118 µM); in [4], 0.005 µg/mL (≈ 0.147 µM); in assay [5] it was 6.37 µg/mL (≈ 187 µM); in assay [6], 6.57 µg/mL (≈ 193 µM). Besides, the median lethal concentration (LC50) in assay [7] is 1.34 µg/mL (≈ 39.4 µM); in assay [8] it was 1.22 µg/mL (≈ 35.9 µM); in assay [9], 1.42 µg/mL (≈ 41.8 µM); in assay [10] it was 1.5 µg/mL (≈ 44.1 µM); in [11] it was 1.77 µg/mL (≈ 52.1 µM); in [12], 0.97 µg/mL (≈ 28.5 µM). Moreover, the LC50 amounted to 1.21 µg/mL (≈ 35.6 µM) in assay [13]; 1.31 µg/mL (≈ 38.5 µM) in assay [14]; 1.12 µg/mL (≈ 32.9 µM) in assay [15]; 1.3 µg/mL (≈ 38.2 µM) in [16]; 0.022 µg/mL (≈ 0.647 µM) in [17]; 1.66 µg/mL (≈ 48.8 µM) in assay [18]. The molecule also gave an LC50 in [19] of 0.003 µg/mL (≈ 0.0882 µM).
